# From patent publication US11547667B2 (priority 2007, dated 2023)
# Test system: CD4 T cells from OT-II donor mice
# Assay: In vivo CD4 T cell activation, CFSE dilution of transferred OT-II T cells
# Set-up: species or system C57BL6J mice
# Conditions: footpad injection, with CpG adjuvant, three days after immunization
# Description: Subsequently, immunization experiments were performed by injecting one footpad with free OVA or with nanoparticles composed of either PLA or PLGA that encapsulated an equivalent amount of OVA as a model antigen. All antigenic mixtures also contained CpG (a TLR9 agonist) as an adjuvant. The animals were injected, sacrificed three days after immunization, and OT-II T cell activation was assessed by flow cytometry in single-cell suspensions from different tissues.
# By contrast, activated T cells divide and in the process split the fluorescent dye evenly between the two daughter cells resulting in an incremental decrease in fluorescence intensity upon each successive division. Thus, the greater the left shift in CFSE, fluorescence the stronger T cells were activated.
substance,measurement,value
"free OVA: free chicken ovalbumin (OVA), mixed with CpG adjuvant","local T cell proliferation in distal lymphoid tissues (brachial lymph node, spleen)",only undivided cells or cells with very low CFSE content
